Source: ChEMBL document CHEMBL3886502, “Pyrrolinone carboxamide compounds useful as endothelial lipase inhibitors” (2016)

target: T1, Endothelial lipase (Homo sapiens, UniProt Q9Y5X9); experiment: Enzyme Assay: The enzymatic assay was measured using white, opaque 96-well half area plates. Each well contained 60 uL of assay buffer (50 mM HEPES pH 8.0, 50 mM NaCl and 1 mM CaCl2) and 2 ul of a DMSO solution containing compound of interest. Conditioned media obtained from HT-1080 cells, which were transformed by RAGE technology (Athersys) to overexpress endogenous EL, was added and the reaction was allowed to incubate for 20 min at 37° C. with gentle agitation. The reaction was started by the addition of 20 uL of a 1:4 dilution of vesicles. The final total reaction volume was 100 uL. The reaction rates were measured on a Gemini plate reader with an excitation wavelength of 488 nm and a emission of 530 nm. Readings were taken every 20 seconds for 10 min with agitation between each reading.; assay type: cell-based
T1 sequence (Q9Y5X9 whole entry): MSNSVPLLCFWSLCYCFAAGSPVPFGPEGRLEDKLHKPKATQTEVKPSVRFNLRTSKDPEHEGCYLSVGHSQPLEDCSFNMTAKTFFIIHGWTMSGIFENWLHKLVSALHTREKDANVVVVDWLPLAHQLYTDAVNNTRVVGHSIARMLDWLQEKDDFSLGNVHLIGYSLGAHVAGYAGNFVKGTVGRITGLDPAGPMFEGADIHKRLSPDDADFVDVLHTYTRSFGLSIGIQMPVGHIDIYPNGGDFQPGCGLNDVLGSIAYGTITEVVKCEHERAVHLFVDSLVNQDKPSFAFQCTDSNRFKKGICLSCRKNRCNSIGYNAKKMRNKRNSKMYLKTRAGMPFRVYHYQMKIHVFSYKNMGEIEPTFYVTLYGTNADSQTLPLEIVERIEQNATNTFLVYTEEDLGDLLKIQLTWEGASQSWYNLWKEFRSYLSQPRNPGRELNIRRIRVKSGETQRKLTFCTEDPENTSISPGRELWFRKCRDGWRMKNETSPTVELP

Row | SMILES | IC50
1 | CC1C(C(=O)NCCCc2ccc(Cl)c(Cl)c2)=C(O)C(=O)N1CCc1ccc(F)cc1 (stereo not drawn) | 486 nM
2 | CN1CC(C(=O)NCCCc2ccccc2C(F)(F)F)=C(O)C1=O | 436 nM
3 | O=C(NCCCc1ccc(Cl)c(Cl)c1)C1=C(O)C(=O)N(Cc2ccccc2C(=O)O)C1 | 488 nM
